The record followed here is patent publication US20050282743A1, “Molecular interactions in cells” (Arbor Vita Corporation, priority 2001, published 2005).

Ends that are not written are not given here. Peptide text beside a SMILES is read from it. * marks the point of attachment. Biotin = O=C1N[C@H]2[C@H](CS[C@H]2CCCCC(=O)*)N1

Holding throughout (experiment): G' assay (10 uM PL peptide), results of TABLE 7 and TABLE 12
Holding throughout (format): binding

Test [1] relates to PDZ protein (GST-PDZ fusion). Put shortly: (§1)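 Biotinylated PL peptides at 10 uM (vs 20 uM in G^0 assay) bound to GST-PDZ fusions; PDZ protein at 5 ug/ml unless another concentration listed. Bound peptide read as A450 nm, classified 0–5 (0 = A450 0; 5 = A450 >4 repeated).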
In test [2] the target is T1, PDZ protein (GST-PDZ fusion) (Homo sapiens, UniProt Q5TCQ9).
T1 construct: made in house; host or cells: E. coli (DH5alpha, BL21 or JM109)
T1 sequence (Q5TCQ9 1-1481): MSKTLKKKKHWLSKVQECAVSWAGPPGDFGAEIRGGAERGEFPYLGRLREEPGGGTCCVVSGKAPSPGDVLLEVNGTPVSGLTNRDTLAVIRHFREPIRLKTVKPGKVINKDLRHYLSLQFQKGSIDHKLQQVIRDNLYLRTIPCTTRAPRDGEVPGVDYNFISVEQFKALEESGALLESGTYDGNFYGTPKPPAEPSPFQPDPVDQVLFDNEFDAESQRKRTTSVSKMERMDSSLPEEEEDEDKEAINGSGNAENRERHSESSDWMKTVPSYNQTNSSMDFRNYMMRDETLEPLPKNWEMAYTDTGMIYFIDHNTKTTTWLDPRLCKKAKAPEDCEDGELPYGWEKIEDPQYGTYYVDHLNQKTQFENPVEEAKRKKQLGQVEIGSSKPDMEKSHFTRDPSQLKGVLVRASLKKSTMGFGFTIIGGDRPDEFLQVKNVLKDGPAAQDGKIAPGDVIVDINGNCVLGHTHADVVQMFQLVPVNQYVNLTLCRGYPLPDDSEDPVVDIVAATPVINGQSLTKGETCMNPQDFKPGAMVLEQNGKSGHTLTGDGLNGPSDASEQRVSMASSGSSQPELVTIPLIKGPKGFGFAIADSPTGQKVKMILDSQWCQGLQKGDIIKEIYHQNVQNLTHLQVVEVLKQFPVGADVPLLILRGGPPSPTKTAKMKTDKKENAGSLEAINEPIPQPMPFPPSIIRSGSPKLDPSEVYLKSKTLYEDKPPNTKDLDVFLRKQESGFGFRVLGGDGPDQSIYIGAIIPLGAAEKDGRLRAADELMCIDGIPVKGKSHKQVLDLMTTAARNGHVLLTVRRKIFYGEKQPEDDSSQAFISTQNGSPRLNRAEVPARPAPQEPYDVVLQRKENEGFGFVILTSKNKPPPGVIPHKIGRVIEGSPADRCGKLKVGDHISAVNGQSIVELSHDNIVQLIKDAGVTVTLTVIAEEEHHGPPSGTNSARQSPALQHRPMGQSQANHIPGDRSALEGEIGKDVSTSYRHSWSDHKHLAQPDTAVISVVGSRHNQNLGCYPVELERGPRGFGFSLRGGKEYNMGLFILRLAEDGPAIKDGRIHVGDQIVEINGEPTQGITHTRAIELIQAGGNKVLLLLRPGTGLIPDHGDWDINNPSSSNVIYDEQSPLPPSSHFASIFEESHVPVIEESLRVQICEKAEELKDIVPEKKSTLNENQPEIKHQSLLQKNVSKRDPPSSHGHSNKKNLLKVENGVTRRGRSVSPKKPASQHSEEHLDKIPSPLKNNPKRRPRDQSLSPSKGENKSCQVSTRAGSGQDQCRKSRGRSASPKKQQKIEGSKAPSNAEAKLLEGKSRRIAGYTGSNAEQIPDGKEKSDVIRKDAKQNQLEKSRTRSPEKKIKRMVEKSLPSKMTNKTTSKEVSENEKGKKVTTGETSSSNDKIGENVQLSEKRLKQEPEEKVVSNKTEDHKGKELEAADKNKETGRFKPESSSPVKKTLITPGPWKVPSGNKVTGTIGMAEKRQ
In short, it runs like this:
as §1

Test [3] addresses T2, PDZ protein (GST-PDZ fusion) (Homo sapiens, UniProt P57105).
T2 construct: made in house; host or cells: E. coli (DH5alpha, BL21 or JM109)
T2 sequence (P57105 1-145): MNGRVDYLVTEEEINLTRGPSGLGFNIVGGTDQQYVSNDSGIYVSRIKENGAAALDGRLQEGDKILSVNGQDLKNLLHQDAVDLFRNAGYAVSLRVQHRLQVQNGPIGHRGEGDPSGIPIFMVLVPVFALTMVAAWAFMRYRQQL
The settings on record: PDZ Outer Membrane, PDZ Domain 1. Put shortly: as §1

The target in test [4] is T3, PDZ protein (GST-PDZ fusion) (Homo sapiens, UniProt Q6P0Q8).
T3 construct: made in house; host or cells: E. coli (DH5alpha, BL21 or JM109)
T3 sequence (Q6P0Q8 whole entry, the tested form may be a part): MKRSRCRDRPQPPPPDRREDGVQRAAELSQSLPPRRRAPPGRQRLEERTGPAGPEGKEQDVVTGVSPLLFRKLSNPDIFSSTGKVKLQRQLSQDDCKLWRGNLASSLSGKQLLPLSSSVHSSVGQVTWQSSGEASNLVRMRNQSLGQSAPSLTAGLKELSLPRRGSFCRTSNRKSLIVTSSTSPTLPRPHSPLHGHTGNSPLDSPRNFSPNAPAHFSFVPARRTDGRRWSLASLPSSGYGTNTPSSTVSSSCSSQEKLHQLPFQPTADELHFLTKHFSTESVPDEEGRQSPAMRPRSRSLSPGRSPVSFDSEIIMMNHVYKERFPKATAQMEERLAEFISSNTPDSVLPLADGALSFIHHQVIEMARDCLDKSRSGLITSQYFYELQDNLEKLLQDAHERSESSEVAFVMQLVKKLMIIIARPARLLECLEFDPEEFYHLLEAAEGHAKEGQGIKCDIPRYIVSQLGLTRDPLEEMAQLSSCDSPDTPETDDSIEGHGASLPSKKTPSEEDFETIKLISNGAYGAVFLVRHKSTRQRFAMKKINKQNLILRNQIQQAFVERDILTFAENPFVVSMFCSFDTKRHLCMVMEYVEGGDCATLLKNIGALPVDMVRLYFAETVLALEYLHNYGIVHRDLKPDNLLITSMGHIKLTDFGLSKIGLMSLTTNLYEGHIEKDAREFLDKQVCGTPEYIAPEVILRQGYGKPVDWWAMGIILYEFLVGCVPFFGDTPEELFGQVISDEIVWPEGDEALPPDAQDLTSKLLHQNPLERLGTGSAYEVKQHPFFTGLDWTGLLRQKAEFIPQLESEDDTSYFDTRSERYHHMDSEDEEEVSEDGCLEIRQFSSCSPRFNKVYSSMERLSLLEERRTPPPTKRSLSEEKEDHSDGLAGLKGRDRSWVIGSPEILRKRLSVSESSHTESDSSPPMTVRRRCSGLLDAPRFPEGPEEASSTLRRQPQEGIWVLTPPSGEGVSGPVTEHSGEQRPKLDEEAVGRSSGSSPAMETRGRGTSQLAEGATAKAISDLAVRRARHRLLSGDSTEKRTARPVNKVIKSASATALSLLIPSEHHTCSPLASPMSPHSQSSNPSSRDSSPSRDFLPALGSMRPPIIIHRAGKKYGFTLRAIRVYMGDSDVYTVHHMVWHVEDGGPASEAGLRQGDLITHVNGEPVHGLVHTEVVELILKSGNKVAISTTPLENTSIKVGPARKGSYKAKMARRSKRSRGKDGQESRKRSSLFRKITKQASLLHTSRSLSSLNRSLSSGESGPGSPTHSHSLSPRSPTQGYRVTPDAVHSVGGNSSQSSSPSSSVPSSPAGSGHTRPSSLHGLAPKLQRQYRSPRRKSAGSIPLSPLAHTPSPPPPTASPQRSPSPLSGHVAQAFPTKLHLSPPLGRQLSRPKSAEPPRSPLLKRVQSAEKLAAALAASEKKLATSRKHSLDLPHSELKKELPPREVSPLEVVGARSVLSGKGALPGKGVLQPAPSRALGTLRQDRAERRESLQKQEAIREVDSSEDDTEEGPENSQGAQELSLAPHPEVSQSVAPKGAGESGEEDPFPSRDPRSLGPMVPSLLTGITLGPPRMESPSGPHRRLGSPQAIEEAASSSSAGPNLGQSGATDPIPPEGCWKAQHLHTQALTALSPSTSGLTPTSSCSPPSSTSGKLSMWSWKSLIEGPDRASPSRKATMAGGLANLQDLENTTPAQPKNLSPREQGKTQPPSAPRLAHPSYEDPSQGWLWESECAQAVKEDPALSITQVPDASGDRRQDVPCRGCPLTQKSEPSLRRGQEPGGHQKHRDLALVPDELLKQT
Put shortly:
as §1

Test [5] addresses T4, PDZ protein (GST-PDZ fusion) (Homo sapiens, UniProt Q12923).
T4 construct: made in house; host or cells: E. coli (DH5alpha, BL21 or JM109)
In short, it runs like this:
as §1

Where [6] appears, read: PDZ HEMBA 1003117, PDZ Domain 1.
The mark [7] stands for this setting: PDZ KIAA807, PDZ Domain not given.

T4 sequence (Q12923 whole entry, the tested form may be a part): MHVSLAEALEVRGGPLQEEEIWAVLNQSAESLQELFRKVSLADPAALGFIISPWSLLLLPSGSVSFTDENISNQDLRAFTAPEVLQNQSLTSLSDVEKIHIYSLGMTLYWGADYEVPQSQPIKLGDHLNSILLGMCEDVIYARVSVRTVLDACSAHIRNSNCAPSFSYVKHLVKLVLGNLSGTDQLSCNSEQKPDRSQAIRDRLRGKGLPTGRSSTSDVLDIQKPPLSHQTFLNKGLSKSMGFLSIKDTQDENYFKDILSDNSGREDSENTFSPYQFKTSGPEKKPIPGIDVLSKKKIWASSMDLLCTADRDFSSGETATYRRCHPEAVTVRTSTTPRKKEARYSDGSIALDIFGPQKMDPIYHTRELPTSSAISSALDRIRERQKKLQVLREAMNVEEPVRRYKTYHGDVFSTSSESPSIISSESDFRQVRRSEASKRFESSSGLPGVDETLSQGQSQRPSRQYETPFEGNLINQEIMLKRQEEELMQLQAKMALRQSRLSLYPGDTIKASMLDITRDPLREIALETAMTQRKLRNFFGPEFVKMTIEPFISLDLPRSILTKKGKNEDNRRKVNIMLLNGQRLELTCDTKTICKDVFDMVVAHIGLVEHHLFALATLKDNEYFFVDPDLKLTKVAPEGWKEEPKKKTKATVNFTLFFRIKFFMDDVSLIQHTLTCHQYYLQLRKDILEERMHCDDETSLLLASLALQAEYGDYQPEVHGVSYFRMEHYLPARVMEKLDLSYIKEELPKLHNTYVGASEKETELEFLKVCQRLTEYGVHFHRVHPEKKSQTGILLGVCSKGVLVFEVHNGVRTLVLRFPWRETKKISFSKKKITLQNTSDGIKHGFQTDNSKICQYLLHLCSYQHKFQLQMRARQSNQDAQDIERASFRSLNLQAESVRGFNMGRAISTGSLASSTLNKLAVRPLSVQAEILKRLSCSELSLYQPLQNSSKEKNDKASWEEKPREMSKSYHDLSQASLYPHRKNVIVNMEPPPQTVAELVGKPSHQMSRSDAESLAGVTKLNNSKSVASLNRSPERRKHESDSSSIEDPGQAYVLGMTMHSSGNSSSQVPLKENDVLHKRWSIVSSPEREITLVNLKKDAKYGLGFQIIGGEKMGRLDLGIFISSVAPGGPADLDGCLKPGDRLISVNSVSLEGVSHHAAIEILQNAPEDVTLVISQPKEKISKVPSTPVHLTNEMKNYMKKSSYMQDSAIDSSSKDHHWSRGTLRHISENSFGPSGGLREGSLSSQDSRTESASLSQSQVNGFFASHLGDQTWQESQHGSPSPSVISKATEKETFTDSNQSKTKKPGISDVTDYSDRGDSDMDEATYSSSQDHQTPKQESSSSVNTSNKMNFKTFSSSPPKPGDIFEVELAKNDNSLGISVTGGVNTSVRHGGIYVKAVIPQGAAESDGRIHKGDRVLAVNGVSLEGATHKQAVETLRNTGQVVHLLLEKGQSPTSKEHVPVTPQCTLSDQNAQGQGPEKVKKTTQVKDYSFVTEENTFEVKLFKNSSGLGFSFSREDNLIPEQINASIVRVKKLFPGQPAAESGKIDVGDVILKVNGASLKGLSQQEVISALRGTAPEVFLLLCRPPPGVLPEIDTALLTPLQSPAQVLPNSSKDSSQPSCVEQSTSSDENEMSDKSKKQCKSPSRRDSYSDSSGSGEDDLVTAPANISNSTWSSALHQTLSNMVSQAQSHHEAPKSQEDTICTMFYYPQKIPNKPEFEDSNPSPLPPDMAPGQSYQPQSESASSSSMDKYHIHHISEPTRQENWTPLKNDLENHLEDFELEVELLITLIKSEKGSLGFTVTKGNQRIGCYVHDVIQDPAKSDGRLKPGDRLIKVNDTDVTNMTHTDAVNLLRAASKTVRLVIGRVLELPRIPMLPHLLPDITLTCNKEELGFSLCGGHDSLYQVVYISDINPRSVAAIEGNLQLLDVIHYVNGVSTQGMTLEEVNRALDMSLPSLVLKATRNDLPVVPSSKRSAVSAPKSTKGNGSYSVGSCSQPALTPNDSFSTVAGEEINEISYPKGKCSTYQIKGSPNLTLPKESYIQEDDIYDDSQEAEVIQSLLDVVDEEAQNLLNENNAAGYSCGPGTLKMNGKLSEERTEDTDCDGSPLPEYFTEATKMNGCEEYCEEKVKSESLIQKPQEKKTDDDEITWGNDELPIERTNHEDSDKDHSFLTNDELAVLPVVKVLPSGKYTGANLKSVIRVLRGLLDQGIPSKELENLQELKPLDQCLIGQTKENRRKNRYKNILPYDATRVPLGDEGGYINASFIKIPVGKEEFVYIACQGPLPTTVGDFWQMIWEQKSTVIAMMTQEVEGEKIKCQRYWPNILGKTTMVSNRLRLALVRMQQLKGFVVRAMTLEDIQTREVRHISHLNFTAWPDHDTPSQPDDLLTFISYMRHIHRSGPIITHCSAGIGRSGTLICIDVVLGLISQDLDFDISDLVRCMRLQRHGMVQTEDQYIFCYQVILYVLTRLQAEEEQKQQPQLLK

Regarding `CSCC[C@H](NC(=O)[C@H](C)NC(=O)[C@H](CCCNC(=N)N)NC(=O)CNC(=O)[C@@H](NC(=O)[C@H](Cc1c[nH]c2ccccc12)NC(=O)[C@H](CCCNC(=N)N)NC(=O)CNC(=O)CCCC[C@@H]1SC[C@@H]2NC(=O)N[C@@H]21)[C@@H](C)O)C(=O)N[C@@H](CO)C(=O)N[C@@H](C)C(=O)N[C@@H](Cc1c[nH]c2ccccc12)C(=O)N[C@@H](CCCCN)C(=O)N1CCC[C@H]1C(=O)N[C@H](C(=O)N[C@@H](CCCNC(=N)N)C(=O)N[C@@H](CCCNC(=N)N)C(=O)N[C@@H](CCC(=O)O)C(=O)N[C@H](C(=O)N[C@@H](CCC(=O)O)C(=O)N[C@H](C(=O)O)C(C)C)[C@@H](C)O)[C@@H](C)O` [HPV E6 #35 (modified)] (Biotin-GRWTGRAMSAWKPTRRETEV-OH; C-terminus assumed), the Classification in test [1] (PDZ BAI-1, PDZ Domain 2) was 5 (A450 nm of 4 more than 2× repeated); in test [1] (PDZ BAI-1, PDZ Domain 3), 4 (A450 nm 3-4); in test [1] (PDZ BAI-1, PDZ Domain 4), 5 (A450 nm of 4 more than 2× repeated); in test [1] (PDZ BAI-1, PDZ Domain 5), 5 (A450 nm of 4 more than 2× repeated); in test [1] (PDZ BAI-1, PDZ Domain 6) it was 3 (A450 nm 2-3); in test [1] (PDZ Connector Enhancer, PDZ Domain 1), 1 (A450 nm 0-1). Moreover, the Classification in test [1] (PDZ FLJ 00011, PDZ Domain 1) was 3 (A450 nm 2-3); in test [1] (PDZ FLJ 11215, PDZ Domain 1), 4 (A450 nm 3-4); in test [1] (setting [6]) it was 1 (A450 nm 0-1); in test [2] (PDZ KIAA1634, PDZ Domain 1), 5 (A450 nm of 4 more than 2× repeated); in test [2] (PDZ KIAA1634, PDZ Domain 2), 3 (A450 nm 2-3); in test [2] (PDZ KIAA1634, PDZ Domain 4), 2 (A450 nm 1-2). For the same molecule, the Classification in test [2] (PDZ KIAA1634, PDZ Domain 5) is recorded as 3 (A450 nm 2-3); in test [3], 5 (A450 nm of 4 more than 2× repeated); in test [4] (PDZ KIAA0807(S), PDZ Domain 1, Protein Optimal Conc 0.5), 5 (A450 nm of 4 more than 2× repeated); in test [4] (setting [7]) it was 5 (A450 nm of 4 more than 2× repeated); in test [5] (PDZ PTPL-1, PDZ Domain 2), 2 (A450 nm 1-2); in test [5] (PDZ PTPL-1, PDZ Domain 4) it was 1 (A450 nm 0-1).
With `CC(C)C[C@H](NC(=O)[C@H](C)NC(=O)[C@H](CO)NC(=O)CNC(=O)[C@@H](NC(=O)CCCC[C@@H]1SC[C@@H]2NC(=O)N[C@@H]21)[C@@H](C)O)C(=O)N[C@@H](CCC(N)=O)C(=O)N[C@@H](C)C(=O)N[C@@H](Cc1c[nH]c2ccccc12)C(=O)N[C@@H](CCCNC(=N)N)C(=O)N[C@@H](Cc1c[nH]cn1)C(=O)N[C@H](C(=O)N[C@@H](CO)C(=O)N[C@@H](CCCNC(=N)N)C(=O)N[C@@H](CCC(N)=O)C(=O)N[C@@H](C)C(=O)N[C@H](C(=O)N[C@@H](CCC(=O)O)C(=O)N[C@@H](CO)C(=O)N[C@H](C(=O)N[C@H](C(=O)O)C(C)C)[C@@H](C)O)[C@@H](C)O)[C@@H](C)O` [HPV E6 #66 (modified)] (Biotin-TGSALQAWRHTSRQATESTV-OH; C-terminus assumed), the Classification in test [1] (PDZ BAI-1, PDZ Domain 2) was 5 (A450 nm of 4 more than 2× repeated); in test [1] (PDZ BAI-1, PDZ Domain 3), 1 (A450 nm 0-1); in test [1] (PDZ BAI-1, PDZ Domain 5), 1 (A450 nm 0-1); in test [1] (PDZ FLJ 00011, PDZ Domain 1) it was 1 (A450 nm 0-1); in test [2] (PDZ KIAA1634, PDZ Domain 1) it was 5 (A450 nm of 4 more than 2× repeated); in test [2] (PDZ KIAA1634, PDZ Domain 2) it was 1 (A450 nm 0-1). For the same molecule, the Classification was 5 (A450 nm of 4 more than 2× repeated) in test [3]; 4 (A450 nm 3-4) in test [4] (PDZ KIAA0807(S), PDZ Domain 1); 2 (A450 nm 1-2) in test [4] (setting [7]); 3 (A450 nm 2-3) in test [5] (PDZ PTPL-1, PDZ Domain 2).
On to “PYSELNYETSHYPASPDSWV (Biotin-PYSELNYETSHYPASPDSWV) [catenin - delta 2]”, for which the Classification in test [1] (PDZ BAI-1, PDZ Domain 3) is on record as 1 (A450 nm 0-1); in test [1] (setting [6]), 1 (A450 nm 0-1); in test [2] (PDZ KIAA1634, PDZ Domain 5), 3 (A450 nm 2-3); in test [3] it was 5 (A450 nm of 4 more than 2× repeated); in test [4] (PDZ KIAA0807(S), PDZ Domain 1), 3 (A450 nm 2-3); in test [4] (PDZ KIAA807 (domain not given)) it was 4 (A450 nm 3-4). For the same molecule, the Classification was 5 (A450 nm of 4 more than 2× repeated) in test [5] (PDZ PTPL-1, PDZ Domain 2) and 1 (A450 nm 0-1) in test [5] (PDZ PTPL-1, PDZ Domain 4).
Turning to TQGFPGPATWRRISSLESEV, the Classification in test [1] (PDZ BAI-1, PDZ Domain 2) is recorded as 4 (A450 nm 3-4); in test [1] (PDZ BAI-1, PDZ Domain 3) it was 1 (A450 nm 0-1); in test [1] (PDZ BAI-1, PDZ Domain 4), 3 (A450 nm 2-3); in test [1] (PDZ BAI-1, PDZ Domain 5), 4 (A450 nm 3-4); in test [1] (PDZ BAI-1, PDZ Domain 6), 2 (A450 nm 1-2); in test [1] (PDZ FLJ00011 (also printed FLJ 00011), PDZ Domain 1), 2 (A450 nm 1-2). For the same molecule, the Classification in test [1] (PDZ FLJ 11215, PDZ Domain 1) is listed as 1 (A450 nm 0-1); in test [2] (PDZ KIAA1634, PDZ Domain 1), 5 (A450 nm of 4 more than 2× repeated); in test [2] (PDZ KIAA1634, PDZ Domain 2), 3 (A450 nm 2-3); in test [2] (PDZ KIAA1634, PDZ Domain 4), 1 (A450 nm 0-1); in test [2] (PDZ KIAA1634, PDZ Domain 5) it was 1 (A450 nm 0-1); in test [3], 5 (A450 nm of 4 more than 2× repeated). Moreover, the Classification was 5 (A450 nm of 4 more than 2× repeated) in test [4] (PDZ KIAA0807(S), PDZ Domain 1); 4 (A450 nm 3-4) in test [4] (setting [7]); 5 (A450 nm of 4 more than 2× repeated) in test [5] (PDZ PTPL-1, PDZ Domain 2).
